Here are results for one compound from PMC12933331, “A Cryptic Pocket Allosterically Modulates Oligosaccharide Binding to DC-SIGN” (JACS Au, 2026).

Structures are written as SMILES. Where a chain is given by its changes, count along the chain named.

One assay has as its target T1, DC-SIGN ECD M270F (Homo sapiens, UniProt Q9NNX6, M270F).
T1 construct: acids 64 -404 of DC -SIGN; made in house
T1 sequence (Q9NNX6 64-404 M270F): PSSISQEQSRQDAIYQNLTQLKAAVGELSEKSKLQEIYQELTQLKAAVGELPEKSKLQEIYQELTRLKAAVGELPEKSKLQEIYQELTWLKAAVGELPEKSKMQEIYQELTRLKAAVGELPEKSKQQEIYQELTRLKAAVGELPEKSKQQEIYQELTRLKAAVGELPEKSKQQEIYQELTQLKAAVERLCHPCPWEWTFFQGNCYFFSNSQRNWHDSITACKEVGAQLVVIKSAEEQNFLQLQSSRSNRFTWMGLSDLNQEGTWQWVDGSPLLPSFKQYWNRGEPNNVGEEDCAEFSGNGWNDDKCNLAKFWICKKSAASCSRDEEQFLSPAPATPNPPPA
Nature of the assay: Plate-based horseradish peroxidase assay. Type of assay: binding. The conditions noted are these: 1 µg mL-1 HRP, 25 mM CaCl2. The method, then: (§1) chromatography. Purified protein was dialyzed against 25 mM HEPES, 150 mM NaCl, 10 mM CaCl2, pH 7.4, concentrated using a centrifugal spin filter, snap frozen and then stored at -80°C. […]
(§2) Plate-based horseradish peroxidase assay
(§3) General remarks. Unless stated otherwise, all reagents and buffers were obtained from Sigma Aldrich or Carl Roth. Measurements were done on a Enspire Multimode Plate Reader (PerkinElmer). GraphPad Prism was used for all data processing and analysis.
(§4) CaCl2 titration. 100 µg mL-1 DC-SIGN ECD were immobilized in immobilization buffer (25 mM HEPES, 150 mM NaCl, 25 mM CaCl 2, pH 7.4) overnight at 4°C on transparent Nunc Maxisorp 96-well plates (Thermo Fisher). Protein solution was removed, and plates were washed three times with immobilization buffer and then blocked for 2 hours at 4°C with blocking buffer (25 mM HEPES, 150 mM NaCl, 25 mM CaCl 2, 2% BSA, 0.01% Tween -20). Plates were washed twice with 25 mM HEPES, 150 mM NaCl, 5 mM EDTA, pH 7.4 and twice with 25 mM HEPES, 150 mM NaCl, pH 7.4 to remove residual Ca 2+. To titrate Ca2+, CaCl2 in 25 mM HEPES, 150 mM NaCl, pH 7.4 was serially diluted on the plate at a constant HRP concentration of 1 µg mL-1 and then incubated at RT for 2 hours. Following incubation, plates were washed three times with 25 mM HEPES, 150 mM NaCl, pH 7.4 and bound HRP was detected using a TMB substrate kit (Thermo Fisher) and 0.18 M H2SO4 according to manufacturer’s instructions. Absorption was […]
(§5) HRP titration. Immobilization and blocking were done as described above. After blocking, plates were washed three times with immobilization buffer. HRP in immobilization buffer was serially diluted on the plate at a constant concentration CaCl2 concentration of 25 mM and then incubated […]
(§6) at RT for 2 hours. Following incubation, plates were washed three times with immobilization buffer and HRP was detected as described above.
(§7) Immobilization and blocking were done as described above. After blocking, plates were washed three times with immobilization buffer. Mannose in immobilization buffer containing 1 µg mL-1 HRP was serially diluted on the plate and then incubated at RT for 2 hours.
(§8) Following incubation, plates were washed three times with immobilization buffer and HRP was detected as described above.
(§9) All conditions were measured in technical triplicates, averaged and normalized to the control well […]
(§10) IC50 and EC50 values and hill […]
(§11) slopes (nH) were obtained in a four-parameter fit according to equation (1).
(§12) Y = bottom + top − bottom (1)
(§13) With bottom and top representing the minimal and maximal response plateaus, respectively, Y as the observed response and X the logarithmic concentration of the ligand . […]
(§14) Biosynth. Spectra were processed in TopSpin 4.2.0 and data analysis was performed using CCPN Analysis 3.2.0 for 2D spectra and in MestreNova for 1D spectra.2 Further analysis was done using GraphPad Prism and in-house python scripts.

In another assay the target is T2, DC-SIGN ECD wildtype (Homo sapiens, UniProt Q9NNX6).
T2 construct: acids 64 -404 of DC -SIGN; made in house
T2 sequence (Q9NNX6 64-404): T1 sequence (Q9NNX6 64-404 M270F) with F207M
Briefly: Plate-based horseradish peroxidase assay. Type of assay: binding. The conditions noted are these: 1 µg mL-1 HRP, 25 mM CaCl2. The method, then: as §1, §2, §3, §4, §5, §6, §7, §8, §9, §10, §11, §12, §13, §14

Setting [1] is: read-out: IC50, inhibition of HRP binding.

Usually IC50 stands for the concentration that gives 50% inhibition. Take `OC[C@H]1OC(O)[C@@H](O)[C@@H](O)[C@@H]1O` (stereo partly shown) [mannose]: the “hill slope, inhibition of HRP binding” value at DC-SIGN ECD M270F is on record as -1.5; on DC-SIGN ECD wildtype, -1.8. The IC50 turned out to be 3100 µM on DC-SIGN ECD M270F (setting [1]) and 2300 µM on DC-SIGN ECD wildtype (setting [1]).
